From PMC9928118, “Funneling modulatory peptide design with generative models: Discovery and characterization of disruptors of calcineurin protein-protein interactions” (PLOS Computational Biology, 2023)

Tested on: GST-tagged Cn
Experiment: PEPperPRINT peptide microarray binding assay with GST-tagged Cn
In short: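 Qualitative binding: peptides printed on a PEPperPRINT microarray were incubated overnight at 4 °C with 1 mg/ml GST-tagged Cn, then detected with Alexa-Fluor 647 anti-GST antibody. Log fluorescence was baseline-corrected, averaged over duplicate spots, Z-normalized and averaged across five repeats.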

[1] = GST-tagged Cn, max over the chip locations
[2] = GST-tagged Cn, mean over the chip locations
[3] = GST-tagged Cn, max over the spots named in Location on chip
[4] = GST-tagged Cn, mean over the spots named in Location on chip
[5] = GST-tagged Cn, max over the chip spots listed under Location on chip
[6] = GST-tagged Cn, mean over the chip spots listed under Location on chip
[7] = max over the spots listed under Location on chip
[8] = mean over the spots listed under Location on chip
[9] = max over the chip locations listed for the peptide (two spots)
[10] = mean over the chip locations listed for the peptide (two spots)
[11] = GST-tagged Cn, max over the spots on the chip (two locations)
[12] = GST-tagged Cn, mean over the spots on the chip (two locations)

## RNPGQALLTLRGHKAQ [SeqRBMlowT_5824]
[1]
  Chip Fluorescence (max): -0.7814
[2]
  Chip Fluorescence (mean): -1.225

## TFWTNPQYVITLEEPD [SeqRBMlowT_2279]
[3]
  Chip Fluorescence (max): 1.482
[4]
  Chip Fluorescence (mean): 0.5155

## SQMGKSRPWVSPERDN [SeqRBM_2721]
[5]
  Chip Fluorescence (max): 0.7358
[6]
  Chip Fluorescence (mean): -0.1667

## HSKFIPKLSIQSPVLH [SeqRBMlowT_6746]
[3]
  Chip Fluorescence (max): 1.7974
[4]
  Chip Fluorescence (mean): -0.2423

## STASLPTFSFSPLAPS [SeqRBMlowT_9999]
[7]
  Chip Fluorescence (max): 2.669
[8]
  Chip Fluorescence (mean): -0.6649

## KAYMCSFMRFIEGGRR [SeqRBMlowT_3379]
[7]
  Chip Fluorescence (max): 2.957
[8]
  Chip Fluorescence (mean): -0.3215

## PGLYDNALGIESFTLS [SeqRBMlowT_2801]
[3]
  Chip Fluorescence (max): 1.445
[4]
  Chip Fluorescence (mean): 0.04021

## KERDVNYYIIHPVGSA [Seqshuffled_9799]
[9]
  Chip Fluorescence (max): 3.906
[10]
  Chip Fluorescence (mean): 0.5831

## GSDDCPNVIVHIPHED [SeqRBM_9050]
[9]
  Chip Fluorescence (max): 5.16
[10]
  Chip Fluorescence (mean): 0.1112

## TTLVIPQMRLTSEATF [SeqRBM_1117]
[9]
  Chip Fluorescence (max): 5.611
[10]
  Chip Fluorescence (mean): 1.324

## VQLFIHLPSSDDTGSY [SeqRBM_6875]
[11]
  Chip Fluorescence (max): 1.006
[12]
  Chip Fluorescence (mean): -4.049

## RTPGTFLLTLRGHKKQ [SeqRBMlowT_7783]
[7]
  Chip Fluorescence (max): 2.997
[8]
  Chip Fluorescence (mean): 0.7866

## VEYDKVWKVAQFVNKC [Seqrandom_9995]
[5]
  Chip Fluorescence (max): 0.5427
[6]
  Chip Fluorescence (mean): -0.6454

## ADEAAPEIVVSKPEHN [SeqRBMlowT_7698]
[1]
  Chip Fluorescence (max): 0.05556
[2]
  Chip Fluorescence (mean): -1.148

## YPPGTPTKQGQQMAPS [SeqRTS1_Aspergillus_carbonarius]
[1]
  Chip Fluorescence (max): -0.3471
[2]
  Chip Fluorescence (mean): -1.955

## RQPGQALLTLRGHKKQ [SeqRBMlowT_5816]
[3]
  Chip Fluorescence (max): 1.5016
[4]
  Chip Fluorescence (mean): 0.5912

## TFWTNPQFRITLEDPD [SeqRBMlowT_31]
[7]
  Chip Fluorescence (max): 2.946
[8]
  Chip Fluorescence (mean): 1.658

## RTPGTALLTLRGHKKQ [SeqRBMlowT_5808]
[1]
  Chip Fluorescence (max): 0.1527
[2]
  Chip Fluorescence (mean): -0.8232

## LNLKIPEVRLNIISAL [SeqRBMlowT_1835]
[1]
  Chip Fluorescence (max): 0.09786
[2]
  Chip Fluorescence (mean): -0.5761

## QPPQNPVATVSTAHHQ [SeqRBM_6519]
[3]
  Chip Fluorescence (max): 1.708
[4]
  Chip Fluorescence (mean): -0.008148

## RNPGTALLELRGHKAS [SeqRBMlowT_6384]
[11]
  Chip Fluorescence (max): 1.174
[12]
  Chip Fluorescence (mean): 0.5723

## NDHNTNDWSFELGQTV [Seqshuffled_9000]
[9]
  Chip Fluorescence (max): 3.477
[10]
  Chip Fluorescence (mean): 1.051

## RAYINPFMQFTDDGRR [SeqRBMlowT_7881]
[5]
  Chip Fluorescence (max): 0.7684
[6]
  Chip Fluorescence (mean): -0.05563

## VSTDAPHSTRNDSGGP [SeqRBM_8532]
[11]
  Chip Fluorescence (max): 0.9892
[12]
  Chip Fluorescence (mean): -0.732

## KAYMNPYMQFIDGGRR [SeqRBMlowT_4720]
[11]
  Chip Fluorescence (max): 1.204
[12]
  Chip Fluorescence (mean): -0.1516

## NSSGAPQFQINVLMGE [SeqRBM_9653]
[1]
  Chip Fluorescence (max): -0.2717
[2]
  Chip Fluorescence (mean): -1.157

## TFTDNPQYTIKLVETD [SeqRBM_9774]
[5]
  Chip Fluorescence (max): 0.9523
[6]
  Chip Fluorescence (mean): 0.09387

## LNAIQEAQDKTDIRNK [Seqshuffled_9749]
[5]
  Chip Fluorescence (max): 0.5862
[6]
  Chip Fluorescence (mean): -1.046

## GTETTPSIVVHVCEDD [SeqRBMlowT_128]
[9]
  Chip Fluorescence (max): 4.964
[10]
  Chip Fluorescence (mean): 1.374

## RAYINPFMTFIDGGHR [SeqRBMlowT_1519]
[9]
  Chip Fluorescence (max): 3.708
[10]
  Chip Fluorescence (mean): 0.9074

## DAHACAVLGIGSFSLL [SeqRBM_9753]
[11]
  Chip Fluorescence (max): 1.031
[12]
  Chip Fluorescence (mean): -0.08931

## LKDEFSDVRLNIISNL [SeqRBMlowT_1878]
[5]
  Chip Fluorescence (max): 0.7069
[6]
  Chip Fluorescence (mean): 0.04327

## PALYDNALGIESFTLS [SeqCRZ1_Penicillium_arizonense]
[3]
  Chip Fluorescence (max): 1.355
[4]
  Chip Fluorescence (mean): 0.6125

## PSEDQPGIVVHVCEEG [SeqRBMlowT_361]
[9]
  Chip Fluorescence (max): 3.843
[10]
  Chip Fluorescence (mean): 0.9779

## TFWTNPQYRITLEELD [SeqRBMlowT_2291]
[9]
  Chip Fluorescence (max): 5.53
[10]
  Chip Fluorescence (mean): 0.9297

## TFWSNPQFKIKLEEED [SeqRBMlowT_8507]
[11]
  Chip Fluorescence (max): 1.116
[12]
  Chip Fluorescence (mean): -0.2464

## RQPGTFLLTLRGHKKQ [SeqRBMlowT_6149]
[5]
  Chip Fluorescence (max): 0.9861
[6]
  Chip Fluorescence (mean): 0.123

## TSSSLPTFNFSSSVIT [SeqNUP153_Canis_lupus]
[11]
  Chip Fluorescence (max): 0.9878
[12]
  Chip Fluorescence (mean): -0.982

## HSKLIPKVSIQSPVHH [SeqRBMlowT_2323]
[1]
  Chip Fluorescence (max): 0.1516
[2]
  Chip Fluorescence (mean): -0.9286

## APSKITEVVVHECEVL [SeqRBM_4402]
[3]
  Chip Fluorescence (max): 1.576
[4]
  Chip Fluorescence (mean): -0.4054

## TFWTNPQYRITLTDVD [SeqRBMlowT_7188]
[5]
  Chip Fluorescence (max): 0.6928
[6]
  Chip Fluorescence (mean): -1.3023

## TFWSNPQFKIKLEEPD [SeqRBMlowT_2229]
[11]
  Chip Fluorescence (max): 1.024
[12]
  Chip Fluorescence (mean): -0.06201

## GGPGTPTRQGQPLAPS [SeqRBMlowT_7789]
[9]
  Chip Fluorescence (max): 4.384
[10]
  Chip Fluorescence (mean): 0.9288

## ADEAIPEIVISKPEEP [SeqRBMlowT_2534]
[9]
  Chip Fluorescence (max): 18.5398
[10]
  Chip Fluorescence (mean): 3.2425

## HSKFIPKLSLQSPVHH [SeqRBMlowT_1695]
[11]
  Chip Fluorescence (max): 1.29
[12]
  Chip Fluorescence (mean): -0.2065

## TFWTNPQYRLKIPDPD [SeqRBMlowT_280]
[7]
  Chip Fluorescence (max): 2.677
[8]
  Chip Fluorescence (mean): 0.4774

## HSKSSPKLSISSPVHH [SeqRBMlowT_1628]
[7]
  Chip Fluorescence (max): 3.1562
[8]
  Chip Fluorescence (mean): 1.038

## HVSSSPDITVTPTQHR [SeqRBMlowT_701]
[1]
  Chip Fluorescence (max): 0.2772
[2]
  Chip Fluorescence (mean): -0.7766

## TFWTNPQYRITLEEVD [SeqRBMlowT_98]
[5]
  Chip Fluorescence (max): 0.8765
[6]
  Chip Fluorescence (mean): 0.0532

## PKEDLPVITIDPASPQ [SeqNHE1_Pan_troglodytes]
[5]
  Chip Fluorescence (max): 0.9606
[6]
  Chip Fluorescence (mean): -0.5019

## TFWTNPQFTITLEEPD [SeqRBMlowT_1494]
[3]
  Chip Fluorescence (max): 1.659
[4]
  Chip Fluorescence (mean): -0.5285

## TFWTNPQYRVTVTDPD [SeqRBMlowT_615]
[3]
  Chip Fluorescence (max): 1.649
[4]
  Chip Fluorescence (mean): 0.4883

## TFWTNPQYRVHVCDPD [SeqRBMlowT_293]
[3]
  Chip Fluorescence (max): 1.378
[4]
  Chip Fluorescence (mean): -0.7162

## KGCAAPAISIDFAPIN [SeqRBM_541]
[9]
  Chip Fluorescence (max): 6.269
[10]
  Chip Fluorescence (mean): 0.8691

## STSSLPTFSFSSLAPS [SeqRBMlowT_2354]
[11]
  Chip Fluorescence (max): 1.162
[12]
  Chip Fluorescence (mean): -0.4848

## PENKFQPFAIKLCVKG [Seqshuffled_5021]
[5]
  Chip Fluorescence (max): 0.8772
[6]
  Chip Fluorescence (mean): -0.6992

## TFWTNPQFRIKLEDPD [SeqRBMlowT_91]
[7]
  Chip Fluorescence (max): 2.652
[8]
  Chip Fluorescence (mean): 0.4239

## RAYINPFMQFTDGGRR [SeqRBMlowT_4069]
[11]
  Chip Fluorescence (max): 1.3045
[12]
  Chip Fluorescence (mean): 0.5135

## LKKTYLRREMHGCYNH [Seqrandom_9958]
[3]
  Chip Fluorescence (max): 1.4154
[4]
  Chip Fluorescence (mean): 0.777

## GLLNVYKKTRITYDNL [Seqrandom_1974]
[5]
  Chip Fluorescence (max): 0.9025
[6]
  Chip Fluorescence (mean): -0.2688

## RNPGQALLELRGHSAS [SeqRBMlowT_6125]
[5]
  Chip Fluorescence (max): 0.4069
[6]
  Chip Fluorescence (mean): -0.3301

## SAGAGVQIVITVTEAE [SeqRBMlowT_1437]
[11]
  Chip Fluorescence (max): 1.271
[12]
  Chip Fluorescence (mean): -0.4781

## DRMAQDSMGWCRECLM [Seqrandom_9951]
[9]
  Chip Fluorescence (max): 3.639
[10]
  Chip Fluorescence (mean): 1.593

## RNPGTALLTLRGHKKQ [SeqRBMlowT_5859]
[1]
  Chip Fluorescence (max): 0.05866
[2]
  Chip Fluorescence (mean): -0.8616

## KAYMSPFMSFIDGGRR [SeqRBMlowT_6614]
[7]
  Chip Fluorescence (max): 2.798
[8]
  Chip Fluorescence (mean): 1.173

## GHSHNPSITITFAEAE [SeqRBM_9189]
[9]
  Chip Fluorescence (max): 4.764
[10]
  Chip Fluorescence (mean): 1.127

## LNLKIPEIDSSDMSAH [SeqFLNA_Erinaceus_europaeus]
[11]
  Chip Fluorescence (max): 1.157
[12]
  Chip Fluorescence (mean): 0.3599

## AQMAPPAINIDFAPTN [SeqRBMlowT_7215]
[5]
  Chip Fluorescence (max): 0.4327
[6]
  Chip Fluorescence (mean): -0.8945

## HSKLIPKLSVQSPVHH [SeqRBMlowT_1714]
[3]
  Chip Fluorescence (max): 1.671
[4]
  Chip Fluorescence (mean): -0.5381

## PFEKNDIQQIHLEEHP [Seqshuffled_9861]
[3]
  Chip Fluorescence (max): 1.396
[4]
  Chip Fluorescence (mean): 0.78

## SDSANPEITITPAELP [SeqRBMlowT_1995]
[9]
  Chip Fluorescence (max): 3.663
[10]
  Chip Fluorescence (mean): 2.123

## RQPGQALLTLRGHSAS [SeqRBMlowT_5869]
[5]
  Chip Fluorescence (max): 0.727
[6]
  Chip Fluorescence (mean): -0.3106

## ATSEQPTFDLSSAMPT [SeqRBM_6206]
[1]
  Chip Fluorescence (max): -1.8391
[2]
  Chip Fluorescence (mean): -2.255

## TFWTNPQYKIKLEEPD [SeqRBMlowT_46]
[5]
  Chip Fluorescence (max): 0.956
[6]
  Chip Fluorescence (mean): -0.7275

## LKDEFPEVRLNIISSL [SeqRBMlowT_1023]
[7]
  Chip Fluorescence (max): 2.696
[8]
  Chip Fluorescence (mean): 0.6595

## TFWTNPQFRLKLEDPD [SeqRBMlowT_699]
[5]
  Chip Fluorescence (max): 0.8365
[6]
  Chip Fluorescence (mean): -0.3514

## RAYINPFMMFRSGGNK [SeqSFB3_Cordyceps_militaris]
[5]
  Chip Fluorescence (max): 0.6899
[6]
  Chip Fluorescence (mean): -0.6148
